Values quoted from earlier work, collected in US20230073516A1, “INTRAORAL FAST-DISINTEGRATING FORMULATION CONTAINING HEMP OIL EXTRACT OR HEMP POWDER EXTRACT AS RAW MATERIAL OF FORMULATION” (CTC SCIENCE INC., priority 2019, published 2023).

Conditions: absorbed while passing through the gastrointestinal tract

Question: Which Bioavailability of cannabidiol does the source give for `C=C(C)[C@@H]1CCC(C)=C[C@H]1c1c(O)cc(CCCCC)cc1O` [cannabidiol] here?
Answer: 13-19%
